From patent EP0840781B1, “METHODS AND DEVICES FOR THE REMOVAL OF PSORALENS FROM BLOOD PRODUCTS” (Cerus Corporation, priority 1995, dated 1996)
Where two headings read alike, the source gives them in different places.

How the values were obtained:
[1] = test system: Salmonella typhimurium tester strains TA97a, TA98, TA100, TA102, TA1537 and TA1538; conditions: for revertant colonies, TA1538 +S9 (Table 18 (A)): background 123; for revertant colonies, TA1538 -S9 (Table 18 (A)): background 126; for revertant colonies, TA1537 -S9 (Table 18 (A)): background 20; for revertant colonies, TA1537 +S9 (Table 18 (A)): background 25
Summary of the method: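 Ames pre-incubation test in S. typhimurium TA97a, TA98, TA1537, TA1538 (frameshift) and TA100, TA102 (base-substitution), with or without 10% Aroclor 1254-induced rat liver S-9. Test solutions at 0–500 µg/mL pre-incubated 20 min at 37 °C, plated in histidine/biotin top agar; revertant colonies counted after 44 h at 37 °C.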

[2] = test system: HIV-1; conditions: 1 Minute Irradiation
Protocol: Pathogen inactivation efficiency of several compounds described herein was evaluated by examining the ability of the compounds to inactivate cell-free virus (HIV). Inactivation of cell-free HIV was performed as follows.
As in the R17 assay, small aliquots of the compounds listed in TABLES 10 and 11, below, at the concentrations listed in the table, were added to stock HIV-1 to a total of 0.5 mL. The stock HIV (10^5 - 10^7 plaque forming units/mL) was in DMEM/15% FBS. […] Controls included HIV-I stock only, HIV-1 plus UVA only, and HIV-I plus the highest concentration of each psoralen tested, with no UVA. Post irradiation. all samples were store frozen at -70° C until assayed for infectivity by a microtiter plaque assay. Aliquots for measurement of residual HIV infectivity in the samples treated with a compound of the present invention were withdrawn and cultured.
Residual HIV infectivity was assayed using an MT-2 infectivity assay. […] The assay medium was 85% DMEM (with a high glucose concentration) containing 100 µg of streptomycin, 100 U of penicillin, 50 µg of gentamicin, and 1 µg of amphotericin B per mL, 15% FBS and 2 µg of Polybrene (Sigma Chemical Co., St. Louis, Mo.) per mL. Test and control samples from the inactivation procedure were diluted in 50% assay medium and 50% normal human pooled plasma. The samples were serially diluted directly in 96-well plates (Coming Glass Works, Coming, N.Y.). The plates were mixed on an oscillatory shaker for 30 seconds and incubated at 37°C in a 5% CO2 atmosphere for 1 to 18 hours. […] After an additional 1 hour of incubation at 37°C in 5% CO2, 0.075 mL of assay medium containing 1.6% SeaPlaque agarose (FMC Bioproducts, Rockland, Maine) and prewarmed to 38.5°C was added to each well. The plates were kept at 37°C for a few minutes until several plates had accumulated and then centrifuged in plate carriers at 600 x g for 20 minutes in a centrifuge precooled to 10°C. In the centrifuge, cell monolayers formed prior to gelling of the agarose layer. The plates were incubated for 5 days at 37°C in 5% CO2 and stained by the addition of 0.05 mL of 50 µg/mL propidium iodide (Sigma Chemical Co.) in phosphate-buffered saline (pH 7.4) to each well. After 24 to 48 hours, the red fluorescence-stained microplaques were visualized by placing the plates on an 8,000 µW/cm^2 304 nm UV light box (Fotodyne, Inc., New Berlin, Wis.). The plaques were counted at a magnification of x20 to x25 through a stereomicroscope.

With `Cc1oc2c(C)c3oc(=O)cc(C)c3cc2c1CNCCCCN` [Compound 6, 4'-(6-amino-2-aza)hexyl4,5',8-trimethylpsoralen] the “revertant colonies, TA1538 +S9” value ([1]; 5 µg/plate) was 0, the “revertant colonies, TA1538 -S9” value ([1]; 5 µg/plate) was -5 and the “revertant colonies, TA1538 +S9 (Table 18 (A))” value ([1]; 5 µg/plate) was 12. For the same compound, the “revertant colonies, TA1538 -S9 (Table 18 (A))” value ([1]; 5 µg/plate) was -32, the “revertant colonies, TA1537 +S9” value ([1]; 10 µg/plate) was -1 and the “revertant colonies, TA1537 -S9” value ([1]; 10 µg/plate) was 141. The “revertant colonies, TA1538 +S9” value ([1]; 10 µg/plate) was 8, the “revertant colonies, TA1538 -S9” value ([1]; 10 µg/plate) was -2 and the “revertant colonies, TA1537 -S9 (Table 18 (A))” value ([1]; 10 µg/plate) was 12. For the same compound, the “revertant colonies, TA1537 +S9 (Table 18 (A))” value ([1]; 10 µg/plate) was -5, the “revertant colonies, TA1538 +S9 (Table 18 (A))” value ([1]; 10 µg/plate) was -5 and the “revertant colonies, TA1538 -S9 (Table 18 (A))” value ([1]; 10 µg/plate) was 3. For the same compound, the “revertant colonies, TA1537 +S9” value ([1]; 50 µg/plate) was 17, the “revertant colonies, TA1537 -S9” value ([1]; 50 µg/plate) was 2010 and the “revertant colonies, TA1537 -S9 (Table 18 (A))” value ([1]; 50 µg/plate) was 12. For the same compound, the “revertant colonies, TA1537 +S9 (Table 18 (A))” value ([1]; 50 µg/plate) was 2, the “revertant colonies, TA1538 +S9 (Table 18 (A))” value ([1]; 50 µg/plate) was 24 and the “revertant colonies, TA1538 -S9 (Table 18 (A))” value ([1]; 50 µg/plate) was 2. For the same compound, the “revertant colonies, TA1537 +S9” value ([1]; 100 µg/plate) was 35, the “revertant colonies, TA1537 -S9” value ([1]; 100 µg/plate) was 795 and the “revertant colonies, TA1537 -S9 (Table 18 (A))” value ([1]; 100 µg/plate) was 22. For the same compound, the “revertant colonies, TA1537 +S9 (Table 18 (A))” value ([1]; 100 µg/plate) was 20, the “revertant colonies, TA1538 +S9 (Table 18 (A))” value ([1]; 100 µg/plate) was -2 and the “revertant colonies, TA1538 -S9 (Table 18 (A))” value ([1]; 100 µg/plate) was -18. The “revertant colonies, TA1537 +S9” value ([1]; 250 µg/plate) was 99, the “revertant colonies, TA1537 -S9” value ([1]; 250 µg/plate) was 228 and the “revertant colonies, TA1537 -S9 (Table 18 (A))” value ([1]; 250 µg/plate) was 12. The “revertant colonies, TA1537 +S9 (Table 18 (A))” value ([1]; 250 µg/plate) was 40, the “revertant colonies, TA1538 +S9 (Table 18 (A))” value ([1]; 250 µg/plate) was -38 and the “revertant colonies, TA1537 +S9” value ([1]; 500 µg/plate) was 369. The “revertant colonies, TA1537 -S9” value ([1]; 500 µg/plate) was 43, the “revertant colonies, TA1537 -S9 (Table 18 (A))” value ([1]; 500 µg/plate) was 9 and the “revertant colonies, TA1537 +S9 (Table 18 (A))” value ([1]; 500 µg/plate) was 52. The “frameshift mutagenicity (Ames, summary)” value ([1]; two-fold or greater increase in revertants above background and dose dependent response) was “a frameshift response in TA98 in the presence of S9 at concentrations of 250µg/plate and above. It also showed a response at 50µg/plate in TA1537 in the presence of S9”, the “base-substitution mutagenicity (Ames, summary)” value ([1]; two-fold or greater increase in revertants above background and dose dependent response, TA100, TA102) was “no base substitution mutagenicity” and the “HIV Log Kill” value ([2]; 16 µM, HIV Starting Titer Approximately 5 Logs (Table 10)) was 2.0. The “HIV Log Kill” value ([2]; 16 µM, HIV Starting Titer Approximately 5.4 Logs (Table 11)) was 2.1, the “HIV Log Kill” value ([2]; 32 µM, HIV Starting Titer Approximately 5 Logs (Table 10)) was 3.1 and the “HIV Log Kill” value ([2]; 32 µM, HIV Starting Titer Approximately 5.4 Logs (Table 11)) was 3.2. The “HIV Log Kill” value ([2]; 64 µM, HIV Starting Titer Approximately 5 Logs (Table 10)) was greater than 3.8 and the “HIV Log Kill” value ([2]; 64 µM, HIV Starting Titer Approximately 5.4 Logs (Table 11)) was greater than 2.8.
